Source: ChEMBL document CHEMBL1151620, “Rollinone, a new cytotoxic acetogenin from Rollinia papilionella” (1984)

Tests used:
P388 [1] = assay: Cytotoxicity against mouse P388 cells; assay type: functional
P388 [2] = assay: In vivo antitumor activity against mouse P388 lymphocytic leukemia in mouse at 1.4 mg/kg; assay type: functional

Q: How did the ED50 (P388 [1]) turn out when `CCCCCCCCCCC(O)C1CCC(C2CCC(C(O)C(=O)CCCCCCCCCCCC3CC(C)OC3=O)O2)O1` (configuration not stated) [ROLLINONE] was run?
A: The ED50 was <1 ×10⁻⁵ ug/ml.

Q: And the T/C (P388 [2])?
A: Its T/C is 147%.
